Data from US11279744B2, “Neuropeptide Y fragment capable of releasing hematopoietic stem cells into blood and treating osteoporosis” (Kyungpook National University Industry-Academic Cooperation …, priority 2017, dated 2022).
Non-standard residues stand in square brackets, D forms with d. No end group written: not given here.

How the values were obtained:
[1] = system: hematopoietic stem cell adhesion factors (Sdf-1a, KitI, Angpt1) present in osteoblasts; assay: expression of hematopoietic stem cell adhesion factors in osteoblasts, real-time quantitative PCR; format: cell-based, mouse; details: for expression levels of Sdf-1a, KitI, and Angpt1 in osteoblasts: 10 nM peptide for 3 days, compared to osteoblasts (control) not treated with peptides, fold change
Description: All mice used in the experiment were 6 to 8 weeks old mice, C57BL/6 mice, and purchased from Jackson Laboratory (Bar Harbor, Me., USA). NPY (21-28) (SEQ ID NO: 1), NPY (24-31) (SEQ ID NO: 2), NPY (29-36) (SEQ ID NO: 3), NPY D25 (21-28) (SEQ ID NO: 4), NPY D26 (21-28) (SEQ ID NO: 5), NPY D25, 26 (21-28) (SEQ ID NO: 6), NPY (21-36) (Osteopep2) (SEQ ID NO: 7) were prepared from Anygen. Full length NPY (SEQ ID NO: 8) was purchased from Bachem. 10 nM of each peptide was diluted in each medium and injected for in vitro experiments. The NPY D^25(21-28) refers to a peptide in which arginine, the fifth amino acid of the amino acid sequence of NPY (21-28), is modified to D-type, the NPY D^26(21-28) refers to a peptide in which the sixth amino acid histidine is modified to D-form, and the D^25,26(21-28) refers to a peptide in which both the fifth and sixth amino acids are modified to D-form, respectively.
Four to six weeks old C57BL/6 mice were sacrificed after anesthesia, and then tibias and femurs were dissected. Bone marrow was harvested from tibias and femurs and single cell suspensions were obtained using a 40 μm cell strainer (Becton-Dickinson LAβware, Franklin Lakes, N.J.). Approximately […] were dispensed into 75-cm 2 flasks containing mesenchymal stem cells Stimulatory Supplements with antibiotics (Stem Cell Technologies, Inc) and MesenCult™ MSCBasal medium. The cells were incubated for 1 week and further incubated for 3 weeks with StemXVivo Osteogenic/Adipogenic Base Media (R & D systems) supplemented with StemXVivo Osteogenic supplement (20×) and penicillin-streptomycin (100×) for differentiation into osteoblasts.
Real-time quantitative PCR was used to measure expression levels of hematopoietic stem cell adhesion factors (Sdf-1a, KitI, Angpt1) present in osteoblasts. Total RNA was extracted from cell eluate and bone marrow cells using the RNeasy Plus mini kit (Qiagen, Korea, Ltd), and cDNAs were synthesized from 5 μg total RNA using a kit in Clontech (Mountain View, Calif.). In addition, using a Corbett research RG-6000 real-time PCR instrument, Real-time quantitative PCR was performed at 95° C. for 10 minutes; at 95° C., for 10 seconds; at 58° C., for 15 seconds; at 72° C. for 20 seconds as one cycle, and 40 cycles were repeated.
First, bone marrow was harvested from 4 to 6 weeks old C57BL6 mice, and mesenchymal stem cells (BM-MSCs) in bone marrow were collected, and then cultured for 3 weeks in osteoblast differentiation induction medium for the differentiation into osteoblasts. After 28 days, each peptide was treated with 10 nM for 3 days, and bone cells were collected and examined for expression levels of three adhesion factors by real-time quantitative PCR. Osteopep2 and its parent NPY were used as positive controls.

[2] = system: myelopoiesis stem cells in the bone marrow; assay: Flow cytometry analysis (FACs) of stem cells in bone marrow of osteoporosis animal models; format: in vivo, mouse; details: OVX mice, 50 μg/kg i.p. twice a day for 4 weeks; bone marrow 1 hour after last dose
Description: To make an osteoporosis model, 10-18 12 weeks old female mice per group underwent ovarian ablation. A week later, 50 μg/kg of NPY(21-28), NPY D^25(21-28), NPY D^26(21-28), NPY D^25,26(21-28), Osteopep2, NPY and 100 μl of PBS(Gibco) were intraperitoneally administered twice a day for 4 weeks at 12 hour intervals. Alendronate (Sigma), used as a competitive drug, was intraperitoneally administered once a week for 4 weeks at a dose of 50 μg/kg. As a control group, only Sham model of osteoporosis was performed by subcutaneous dissection of female mouse. Mice were placed in experimental groups using the Block randomization method, and all mouse experiments were approved through the Kyungpook National University Institutional Animal Care and Use Committee.
To examine the changes in the number of myelopoiesis stem cells in the bone marrow of the mouse, the bone marrows of mice were collected and analyzed by FACs using five antibodies such as Lineage, Sca-1, c-kit, CD150, and CD48 as markers of myelopoiesis stem cells. For the analysis of myelopoiesis stem cell, bone marrow collected from the tibias and the femurs in the animal models of osteoporosis injected with each peptide was removed from red blood cells with ammonium chloride solution (Stem Cell Technologies, Inc. 1:4). […] The remaining cells were reacted for 30 minutes at 4° C. using Sca-1-PECY7, c-kit-APC, CD150-PE, and CD48-FITC (BD science) antibodies, and then were analyzed by LSRII (BD science) flow cytometry.
In order to investigate whether the NPY (21-28) of the present invention affects the blood release of myelopoiesis stem cells in the animal models of osteoporosis, the following experiments were carried out according to the methods of Examples 1-1, 1-3, 1-4, and 1-5. […] Weight change was measured weekly, and bone marrow and blood were collected one hour after the last dose at 4 weeks, and the release of myelopoiesis progenitor and stem cells into blood was analyzed. […]

Substance | expression levels of Sdf-1a, KitI, and Angpt1 in osteoblasts [1] | number of myelopoiesis stem cells remaining in the bone marrow (FACs) [2] | amount of Angpt1 expression in osteoblasts, compared with NPY (21-28) ([1]; 10 nM peptide, osteoblasts)
NPY D^25(21-28): peptide in which arginine, the fifth amino acid of the amino acid sequence of NPY (21-28), is modified to D-type (YSAL[dR]HYI) | decreased | reduced | 
NPY D^25,26(21-28): peptide in which both the fifth and sixth amino acids of NPY (21-28) are modified to D-form (YSAL[dR][dH]YI) | decreased | reduced | further reduce the amount of Angpt1 expression than NPY (21-28)
YSALRHYI [NPY (21-28)] | decreased | reduced | 
